The target in test [1] is T1, uPA (Homo sapiens, UniProt P00749). The experiment in a line: biochemical. As to conditions: read-out: Percentage inhibition of proteolysis. The procedure: (§1) The extent of proteolysis of the growth factors was assayed by incubating TGF-β2, VEGF, PDGF-BB and KGF-2 with the proteases uPA, plasmin, MMP-3 and MMP-13 in assay buffer (either uPA/plasmin buffer, 50 mM tris-HCl, pH 7.4 or MMP assay buffer, 100 mM Tris, 10 mM NaCl, 10 mM CaCl2, 0.05% (w/v) Brij 35, pH 7.5). […] The growth factors were added to the incubation mixture at a final concentration of […], unless otherwise stated.
(§2) The effects of uPA were determined by incubation at a typical final concentration of 25 μg/ml (1500 U/ml) with each growth factor. The effects of plasmin were determined at a typical final concentration of 0.1 mg/ml by incubation with the individual growth factors in assay buffer. MMP-3 and -13 were incubated at a typical final concentration of 10 nM with the growth factors in assay buffer. Dual protease assays carried out with uPA and MMP-3 together were performed in 100 mM Tris, […], 10 mM CaCl2, 0.05% (w/v) Brij 35, pH 7.5. All incubations were performed in siliconised tubes (Sigma Aldrich, UK).
The inhibitors used in these experiments were compound 9454, compound 9470 and compound 5214. These were dissolved in DMSO at a concentration of 10 mM. Typical final concentrations for these inhibitors were in the range of 100 μM to 10 nM. Aprotinin was dissolved in the Tris buffer at 10 mg/ml and used at a typical concentration of 10 μg/ml.
All assays were carried out at 37° C. and enzymes were pre-incubated for 15 minutes with or without inhibitor as appropriate, prior to addition of growth factors. After the addition of growth factor, the incubation mixtures were divided into aliquots in siliconised tubes for each time point used. Incubations were carried out over a time course typically of 24 hours, unless otherwise stated. They were stopped by the addition of an equal volume of 2×Novex reducing loading buffer (final concentration 1.09 M glycerol, 141 mM Tris-base, 106 mM Tris-HCl, 73 mM lithium dodecyl sulphate (LDS), 0.5 mM ethylenediaminetetraacetic acid, 0.22 mM Serva Blue G250, 0.175 mM Phenol Red, pH 8.5) and samples prepared for electrophoresis by incubating at 70° C. for 10 minutes.
LDS-PAGE was performed using the NOVEX Xcell II Mini-Cell gel apparatus (Groningen, Holland) using a variation on the method of Laemmli (1970). Equal volumes of samples were loaded onto NuPage 4-12% Bis-tris gels with molecular weight markers (SeeBlue Plus2 Pre-stained Standards). Molecular weight determination was performed by comparison of bands with markers of molecular weight 3, 6, 14, 17, 28, 38, 49, 62, 98 and 188 kDa. […]

The subject of a further test is uPA and MMP-3. The experiment in a line: Inhibition of uPA and MMP-3-mediated KGF-2 degradation (dual protease assay). It is filed as biochemical, human. Particulars: uPA and MMP-3 together / KGF-2; inhibitors used (100 μM), alone or in combination. The procedure:
as §1, §2
The inhibitors used in these experiments were compound 9454, compound 9470 and compound 5214. These were dissolved in DMSO at a concentration of 10 mM. Typical final concentrations for these inhibitors were in the range of 100 μM to 10 nM. Aprotinin was dissolved in the Tris buffer at 10 mg/ml and used at a typical concentration of 10 μg/ml. […]

In test [2] the target is T1, uPA. The experiment in a line: biochemical. As to conditions: for Ki: UPA. The procedure: A pre-incubation of compound with enzyme is carried out for 15 minutes at 37° C., followed by substrate addition and further incubation for 30 minutes at the same temperature. The final assay volume is 200[…]1.
uPA (urokinase type plasminogen activator) inhibition was assayed by incubating human uPA at 33 IU/ml in 75 mM Tris, pH 8.1, 50 mM NaCl with 180 μM S2444 (substrate) and various concentrations of inhibitors. For the primary screen results, the incubation was performed at 37° C. for 30 minutes.
These assays were carried out in a 96-well plate. […] The incubation was performed after an initial pre-incubation at 37° C. for 15 mins and absorbance was read at 405 nm at 0 mins and at the end of the incubation on a […]ax microplate reader (Molecular Devices Corporation), using SOFTMaxPRO software.

In a further test the target is T2, human tPA (Homo sapiens, UniProt P00750).
T2 construct: Human tPA (one chain) 10 μg/vial (Chromogenix, 821157-039/0); purchased Chromogenix 821157-039/0
The experiment in a line: tPA chromogenic inhibition assay (S2288). As to conditions: 100 μM compound. It is filed as biochemical. The method, then: The method for analysis of tPA inhibition is similar to that for uPA inhibition. The assay utilises final concentrations of tPA of 0.4 µg/ml with 0.1 mg/ml tPA stimulator, 0.4 mM S2288 (substrate) and various concentrations of inhibitors, made up in uPA assay buffer. Pre-incubation is carried out with compound, enzyme and enzyme stimulator, as for uPA, prior to the incubation with substrate. Incubation time is 60 minutes at performed at 37° C. Data analysis is identical to that described above for uPA, using a known Km for tPA of 250 μM.
The incubation was performed at 37° C. for 60 mins. Percentage inhibition was calculated.

In a further test the target is T3, Plasmin (Homo sapiens, UniProt P00747).
T3 construct: Human plasmin, 2 mg/vial (Quadratech, 810665) was reconstituted to 1 mg/ml in buffer; purchased Quadratech 810665
The experiment in a line: Plasmin chromogenic inhibition assay (Chromozym-PL). It is filed as biochemical. As to conditions: 100 μM compound. The method, then:
Plasmin inhibition is assayed by incubating human plasmin at 0.7 μg/ml with 0.2 mM Chromozym-PL (substrate) and various concentrations of inhibitors in uPA assay buffer. Pre-incubation is carried out as for uPA and the incubation is performed at 37° C. for 30 mins.
The incubation was performed at 37° C. for 30 mins. Percentage inhibition was calculated.

Test [3] addresses T4, catalytic domain of human MMP-9 (Homo sapiens, UniProt P14780).
T4 sequence (P14780 with tags, fused parts or gaps DEL216-390 limits assumed): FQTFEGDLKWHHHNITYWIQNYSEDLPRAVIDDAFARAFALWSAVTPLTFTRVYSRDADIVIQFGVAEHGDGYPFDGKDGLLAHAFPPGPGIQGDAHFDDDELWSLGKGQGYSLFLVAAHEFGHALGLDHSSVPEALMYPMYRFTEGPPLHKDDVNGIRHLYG
The experiment in a line: MMP-9 fluorogenic inhibition assay. Particulars: read-out: Calculated Ki(nM) MMP-9. It is filed as biochemical. The method, then: (§3) All enzymes were pre-activated at 37° C. with aminophenylmercuric acetate (APMA) or trypsin before being made up to the final concentrations used in the assay. MMP-1 (30 nM) was activated with 0.93 mM APMA for 20 minutes, MMP-2 (30 nM) was activated with 1.32 mM APMA for 1 hour, MMP-3 (1010 nM) was activated with 1.81 mM APMA for 3 hours or heat activated at 55° C. for three hours, MMP-9 (100 nM) was activated with 2 mM APMA for 2 hours, human MMP-13 (100 nM) was activated with 2 mM APMA for 2 hours, and MMP-14 (900 nM) was activated with 0.9 ng/ml trypsin for 25 minutes, followed by the addition of 4.5 ng/ml trypsin inhibitor.
(§4) For MMP-1, the assay buffer used was 50 mM Tris, 200 mM NaCl, 5 mM CaCl2, 20 μM ZnCl2, 0.05% (w/v) Brij 35, pH 7.5. […] For MMP-13, the assay buffer used was 50 mM Tris, pH 7.5, 200 mM NaCl, 5 mM CaCl2, […] and 0.02% (w/v) Brij 35. For MMP-14, the assay buffer used was 50 mM Tris, 100 mM NaCl, 10 mM CaCl2, 0.25% (w/v) Brij 35, pH 7.5.
MMP-2, MMP-3 and MMP-9 inhibition was assayed by incubating activated catalytic domain of human MMP-2, MMP-3 and MMP-9 at 1 nM in assay buffer with 5 μM substrate Mca-Arg-Pro-Lys-Pro-Tyr-Ala-Nva-Trp-Met-Lys(Dnp)-NH2, and six different concentrations of inhibitor. The incubation was performed at 37° C. for 60 minutes.
(§5) The final assay concentrations of inhibitors used in the MMP-1 assays to determine Ki were 50, 40, 30, 20, 10 and 5 μM. For MMP-2, the final assay concentrations of inhibitors used were 1000, 800, 600, 400, 200 and 100 nM. For MMP-3, the final assay concentrations of inhibitors used were 5, 4, 3, 2, 1 and 0.5 nM. For MMP-9 and MMP-14, the final assay concentrations of inhibitors used were 5, 4, 3, 2, 1 and 0.5 μM.
All assays were carried out in a black 96-well plate with a final volume of 100 μl in each well. […] For MMP-2, MMP-3, MMP-9 and MMP-14, fluorescence was read every 2 minutes at […] and 393 nm γem for 1 hour using a Fluorostar fluorimeter (BMG) with BIOLISE software. For MMP-1 assays, the filters used were 355 nm γex and 440 nm γem; fluorescence was read every 2 minutes for 1 hour. […]

Test [4] deals with T5, catalytic domain human MMP-14 (Homo sapiens, UniProt P50281).
T5 construct: made in house
The experiment in a line: MMP-14 fluorogenic inhibition assay. It is filed as biochemical. As to conditions: read-out: Calculated Ki(nM) MMP-14. The method, then:
as §3, §4
MMP-14 inhibition was assayed by incubating activated catalytic domain human MMP-14 at 1 nM in assay buffer with 10 μM Mca-Pro-Leu-Gly-Leu-Dpa-Ala-Arg-NH2 and six concentrations of inhibitor. The incubation was performed at 37° C. for 60 minutes.
as §5
All assays were carried out in a black 96-well plate with a final volume of 100 μl in each well. Inhibitors were dissolved in dimethylsulphoxide (DMSO) to 1 mM. […] For MMP-2, MMP-3, MMP-9 and MMP-14, fluorescence was read every 2 minutes at […] and 393 nm γem for 1 hour using a Fluorostar fluorimeter (BMG) with BIOLISE software. For MMP-1 assays, the filters used were 355 nm γex and 440 nm γem; fluorescence was read every 2 minutes for 1 hour. […]

Test [5] concerns circular full thickness lesions. The experiment in a line: Normal wound healing in pigs, full thickness lesions. It is filed as in vivo. As to conditions: 0.3% w/v formulation in CMC hydrogel, 1 ml topically daily, pig. The method, then: The experiment was performed in 3 female SPF pigs (crossbreed of Danish country, Duroc and Yorkshire). At start of the acclimatisation period the body weight of the animals was about 30 kg. The lesions were established on day 1. The animals were anaesthetised with Stresnil® Vet. Janssen, Belgium (40 mg azaperone/ml, 1 ml/10 kg), and Atropin DAK, Denmark (1 mg atropine/ml, 0.05 ml/kg), given as a single intramuscular injection followed by i.v. injection of Hypnodil® Janssen, Belgium (50 mg metomidate/ml, 1-2 ml). Eight circular full thickness lesions (diameter 20 mm) were made on the prepared area, four on each side of the spine. The lesions were numbered 1 (most cranial) to 4 (most caudal) on the left side of the animal, and 5 (most cranial) to 8 (most caudal) on the right side of the animal. After surgery and daily thereafter, the test articles were applied as follows: The dosing volume of each dosing was 1 ml. The dressings were changed on a daily basis. Each lesion was observed daily. The outlines of the wound edge and the epithelial edge will be drawn on sterile transparent sheets, and the areas contained inside the edges were measured planimetrically. The measurement of areas was performed by Scan Beam […] processed to give group mean values and standard deviations where appropriate. Possible outliers were identified, too. Each variable was tested for normality by the Shapiro-Wilk method. In case of normal distribution, two-way analysis of variance was carried out for the variable with the factor: animal and treatment, and if significant difference were detected, possible intergroup differences were assessed using the least-squares means. Otherwise the possible intergroup differences were identified with Wilcoxon Rank-Sum test.

Where [6] appears, read: individual determinations, 100 µM.
Setting [7] is: individual determinations, read-out: % inhibition at 100 μM.
[8] abbreviates: mean ± sem, read-out: % inhibition at 100 μM Mean ± sem.

Where “and” joins values, the source holds several entries; their conditions need not be identical. Equal entries are not always repeated. Where two headings read alike, the source gives them in different places.

T3 sequence (P00747 581-810 limits assumed): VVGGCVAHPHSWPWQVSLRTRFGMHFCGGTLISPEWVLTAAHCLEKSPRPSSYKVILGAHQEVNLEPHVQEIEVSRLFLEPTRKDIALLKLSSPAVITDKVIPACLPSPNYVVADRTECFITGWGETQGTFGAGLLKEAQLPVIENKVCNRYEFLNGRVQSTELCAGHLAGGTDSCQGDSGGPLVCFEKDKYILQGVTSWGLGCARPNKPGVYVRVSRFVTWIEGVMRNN
T3 sequence (P00747 97-580 partner limits assumed): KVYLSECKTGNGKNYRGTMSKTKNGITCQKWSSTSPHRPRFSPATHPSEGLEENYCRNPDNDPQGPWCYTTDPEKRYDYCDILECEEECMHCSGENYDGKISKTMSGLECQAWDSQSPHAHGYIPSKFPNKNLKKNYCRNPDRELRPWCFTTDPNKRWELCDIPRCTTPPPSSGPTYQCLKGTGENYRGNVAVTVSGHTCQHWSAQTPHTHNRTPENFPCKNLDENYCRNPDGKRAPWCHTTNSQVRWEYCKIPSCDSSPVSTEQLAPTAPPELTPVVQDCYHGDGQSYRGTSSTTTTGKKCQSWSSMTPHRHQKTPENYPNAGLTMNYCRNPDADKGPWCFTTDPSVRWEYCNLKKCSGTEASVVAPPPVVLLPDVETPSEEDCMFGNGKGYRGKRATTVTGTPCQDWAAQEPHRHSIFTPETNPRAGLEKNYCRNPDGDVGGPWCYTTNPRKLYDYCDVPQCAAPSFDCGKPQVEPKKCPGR
T2 sequence (P00750 36-562): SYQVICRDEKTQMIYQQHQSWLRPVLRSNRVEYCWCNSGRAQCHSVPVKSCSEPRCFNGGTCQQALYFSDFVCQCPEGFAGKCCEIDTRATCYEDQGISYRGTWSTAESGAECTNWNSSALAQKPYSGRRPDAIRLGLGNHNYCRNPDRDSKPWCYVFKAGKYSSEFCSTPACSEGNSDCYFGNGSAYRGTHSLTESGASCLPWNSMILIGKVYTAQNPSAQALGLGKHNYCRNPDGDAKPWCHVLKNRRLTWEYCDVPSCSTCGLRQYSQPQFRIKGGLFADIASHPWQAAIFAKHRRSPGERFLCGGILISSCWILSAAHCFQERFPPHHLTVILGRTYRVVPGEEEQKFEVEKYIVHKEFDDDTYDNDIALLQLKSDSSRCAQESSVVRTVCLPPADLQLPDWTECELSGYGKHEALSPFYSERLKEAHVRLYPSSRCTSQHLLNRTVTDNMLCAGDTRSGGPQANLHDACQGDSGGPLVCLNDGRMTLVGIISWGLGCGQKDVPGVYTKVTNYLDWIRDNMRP

Usually inhibition stands for the relative decrease from the control value, in per cent. The term Ki denotes the dissociation constant of the complex between target and ligand, obtained from inhibition or displacement. In general, % inhibition refers to the drop in the measured response relative to a control, in per cent. Higher therefore signals strong suppression. As to `NC(N)=Nc1ncc(Cl)c2ccc(S(=O)(=O)N3CCCC3C(=O)O)cc12` (centres unmarked) [compound 5214], the inhibition at 0.1 µM at uPA [1] was found to be 17%. For the same molecule, the inhibition at 1 µM on uPA [1] was determined as 76%. Besides, the inhibition at 10 µM at uPA [1] amounted to 83%. The inhibition at 100 µM on uPA [1] came to 91%; at human tPA (setting [7]), 38%; at human tPA (setting [8]), 45 ± 3.61%; at Plasmin (setting [7]), 31%; at Plasmin (setting [8]) it was 29.8 ± 1.38%. Moreover, the “Percentage inhibition of proteolysis” value with uPA and MMP-3 is on record as 38.6. Also, the Ki on uPA [2] (Calculated Ki (nM) Mean ± sem, mean ± sem) was 9.9 ± 0.76 nM; on uPA [2] (Calculated Ki (nM), individual determinations), 11 nM and 9.6 nM and 7.8 nM. Moreover, the “Potency as inhibitor of uPA (in words)” value at uPA [2] (from Table 1) is recorded as “potent inhibitor of uPA”. Besides, the “% inhibition at 100 μM” value at human tPA (setting [6]) is 47% and 50%; at Plasmin (setting [6]), 33% and 28% and 27%.

In the case of `CNC(=O)[C@@H](Cc1ccccc1)NC(=O)C(CC(C)C)[C@H](CSc1cccs1)C(=O)NO` (some centres unmarked) [compound 5719], the Ki is 0.47 nM in test [3] and 3.68 nM in test [4]. Further, the “Non-epithelialised area MEAN” value in test [5] (DAY 8) is reported as 294.0; in test [5] (DAY 9), 248.0; in test [5] (DAY 10), 210.1; in test [5] (DAY 11), 148.9.

Source of the values: patent US20050026836A1, “Composition for the treatment of damaged tissue” (priority 1999, published 2005).
